Test results taken from patent publication US8871767B2, “2-arylimidazo[1,2-B]pyridazine, 2-phenylimidazo[1,2-A]pyridine, and 2-phenylimidazo[1,2-A]pyrazine derivatives” (Hengrui (USA) Ltd., priority 2010, dated 2014).
Like-named read-outs stand apart in the source and are kept apart here. Each block holds one compound with its values, some of them ahead of it.

How the values were obtained:
[1] = system: Hedgehog pathway activation on 10T1/2/Smo#3 cells (C3H10T1/2 cells transfected with human Smoothened receptor); assay: Hedgehog pathway activation on 10T1/2/Smo#3 cells measured by ALP activity; assay type: cell-based; details: Mus musculus, C3H 10T1/2, 10T1/2/Smo#3 cells
Method in brief: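 Inhibition of alkaline phosphatase induction, read fluorometrically from 4-methylumbelliferyl phosphate conversion, gave IC50 values; CellTiter-Blue tracked viability in parallel. Cells were the human Smo-transfected 10T1/2/Smo#3 pool, stimulated by 10-20% hShh conditioned medium or the Smo agonist SAG (500 nM).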

[2] = system: Hedgehog pathway activation (GLi-luciferase reporter) in Shh Light II reporter cells; assay: Hedgehog pathway activation on Shh Light II reporter cells measured by luciferase activity; assay type: cell-based; details: Mus musculus, Shh Light II
Method in brief: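 Shh Light II reporter cells carrying a hedgehog-responsive GLi-luciferase reporter were stimulated either with 500 nM SAG, a direct Smoothened agonist, or with conditioned media containing human Sonic Hedgehog (hShh). Test compounds were evaluated for blocking this pathway activation, quantified by luciferase activity. Cell viability was monitored in parallel with the Celltiter-Blue® assay.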

[3] = hShh activation, ALP activity, read-out: 10T1/2/Smo#3 ALP activity (hShh Activation)
[4] = SAG activation (500 nM SAG), read-out: Shh Light II luciferase activity (SAG activation)
[5] = hShh activation, read-out: Shh Light II luciferase activity (hShh activation)
[6] = measured by ALP activity, read-out: ALP (IC50, inhibition of Hedgehog pathway activation)
[7] = hShh activation, read-out: Shh (IC50, inhibition of Hedgehog pathway activation)

SMILES: Cc1ccc(-c2cn3cccnc3n2)cc1NC(=O)CC(C)(C)C [Example 89, N-(5-(imidazo[1,2-a]pyrimidin-2-yl)-2-methylphenyl)-3,3-dimethylbutanamide]
- IC50 [1, 3]: 3000 to 30000 nM
- IC50 [2, 4]: 3000 to 30000 nM
- IC50 [2, 5]: 3000 to 30000 nM

SMILES: CNS(=O)(=O)c1cc(-c2cn3nc(-c4cccnc4C(F)(F)F)ccc3n2)ccc1Cl [Example 698, 2-chloro-N-methyl-5-(6-(2-(trifluoromethyl)pyridin-3-yl)imidazo[1,2-b]pyridazin-2-yl)benzenesulfonamide]
- IC50 [1, 6]: > 10000 nM
- IC50 [2, 7]: 4250 nM

SMILES: CCc1ccc(-c2cn3nc(-c4cccnc4C(F)(F)F)ccc3n2)cc1NC(=O)N1CC(F)(F)C1 [Example 695, N-(2-ethyl-5-(6-(2-(trifluoromethyl)pyridin-3-yl)imidazo[1,2-b]pyridazin-2-yl)phenyl)-3,3-difluoroazetidine-1-carboxamide]
- IC50 [1, 6]: 158 nM
- IC50 [2, 7]: 368 nM

SMILES: CCc1ccc(-c2cn3nc(-c4cccnc4C(F)(F)F)ccc3n2)cc1NC(=O)CC(F)(F)F [Example 692, N-(2-ethyl-5-(6-(2-(trifluoromethyl)pyridin-3-yl)imidazo[1,2-b]pyridazin-2-yl)phenyl)-3,3,3-trifluoropropanamide]
- IC50 [1, 6]: 951 nM
- IC50 [2, 7]: 416 nM

SMILES: O=C(Nc1cc(-c2cn3nc(-c4cccnc4C(F)(F)F)ccc3n2)ccc1F)N1CC(F)(F)C1 [Example 684, 3,3-difluoro-N-(2-fluoro-5-(6-(2-(trifluoromethyl)pyridin-3-yl)imidazo[1,2-b]pyridazin-2-yl)phenyl)azetidine-1-carboxamide]
- IC50 [1, 6]: 356 nM
- IC50 [2, 7]: 95 nM

SMILES: CCOc1ccc2nc(-c3ccc(C(F)(F)F)c(S(=O)(=O)NC4CCCCC4)c3)cn2n1 [Example 214, N-cyclohexyl-5-(6-ethoxyimidazo[1,2-b]pyridazin-2-yl)-2-(trifluoromethyl)benzenesulfonamide]
- IC50 [1, 6]: 1580 nM
- IC50 [2, 7]: > 10000 nM

SMILES: Cc1c(-c2ccccc2)nc2ccc(N3CCNCC3)nn12 [Example 145, 3-methyl-2-phenyl-6-(piperazin-1-yl)imidazo[1,2-b]pyridazine]
- IC50 [1, 3]: 3000 to 30000 nM
- IC50 [1, 6]: 4780 nM
- IC50 [2, 4]: 3000 to 30000 nM
- IC50 [2, 7]: 5440 nM
- IC50 [2, 5]: 3000 to 30000 nM

SMILES: Fc1ccc(CN2CCN(c3ccc4nc(-c5ccc(F)cc5)c(C5CC5)n4n3)CC2)cc1 [Example 167, 3-cyclopropyl-6-(4-(4-fluorobenzyl)piperazin-1-yl)-2-(4-fluorophenyl)imidazo[1,2-b]pyridazine]
- IC50 [1, 6]: > 10000 nM
- IC50 [2, 7]: 2270 nM

SMILES: COc1ccc2nc(-c3cc(NC(=O)C(C)(C)C)c(C)cc3C)cn2n1 [Example 106, N-(5-(6-methoxyimidazo[1,2-b]pyridazin-2-yl)-2,4-dimethylphenyl)pivalamide]
- IC50 [1, 3]: 300 to 3000 nM
- IC50 [1, 6]: 2500 nM
- IC50 [2, 4]: 300 to 3000 nM
- IC50 [2, 7]: 774 nM
- IC50 [2, 5]: 300 to 3000 nM

SMILES: CN[C@@H]1CCN(c2ccc3nc(-c4ccc(C(F)(F)F)c(NC(=O)C(C)(C)C)c4)cn3n2)C1 [Example 634, (R)—N-(5-(6-(3-(methylamino)pyrrolidin-1-yl)imidazo[1,2-b]pyridazin-2-yl)-2-(trifluoromethyl)phenyl)pivalamide]
- IC50 [1, 6]: 98 nM
- IC50 [2, 7]: 120 nM

SMILES: CC(C)(C)C(=O)Nc1cc(-c2cn3cc(-c4ccccc4F)ccc3n2)ccc1C(F)(F)F [Example 83, N-(5-(6-(2-fluorophenyl)imidazo[1,2-a]pyridin-2-yl)-2-(trifluoromethyl)phenyl)pivalamide]
- IC50 [1, 3]: 300 to 3000 nM
- IC50 [1, 6]: 1350 nM
- IC50 [2, 4]: 300 to 3000 nM
- IC50 [2, 7]: 1010 nM
- IC50 [2, 5]: 300 to 3000 nM

SMILES: Cc1c(Cl)nn2cc(-c3ccc(C(F)(F)F)c(NC(=O)C(C)(C)C)c3)nc2c1C [Example 198, N-(5-(6-chloro-7,8-dimethylimidazo[1,2-b]pyridazin-2-yl)-2-(trifluoromethyl)phenyl)pivalamide]
- IC50 [1, 3]: 300 to 3000 nM
- IC50 [1, 6]: 1970 nM
- IC50 [2, 4]: 3000 to 30000 nM
- IC50 [2, 7]: 1680 nM
- IC50 [2, 5]: 300 to 3000 nM

SMILES: CN(C)S(=O)(=O)c1cc(-c2cn3nc(-c4cccnc4C(F)(F)F)ccc3n2)ccc1Cl [Example 700, 2-chloro-N,N-dimethyl-5-(6-(2-(trifluoromethyl)pyridin-3-yl)imidazo[1,2-b]pyridazin-2-yl)benzenesulfonamide]
- IC50 [1, 6]: > 10000 nM
- IC50 [2, 7]: 2500 nM

More lines, now with the values ahead:

- IC50 [1, 3]: < 300 nM
- IC50 [1, 6]: 14 nM
- IC50 [2, 4]: < 300 nM
- IC50 [2, 7]: 11 nM
- IC50 [2, 5]: < 300 nM
SMILES: CCc1ccc(-c2cn3nc(-c4cccnc4C(F)(F)F)ccc3n2)cc1NC(=O)C(C)(C)C [Example 352, N-(2-ethyl-5-(6-(2-(trifluoromethyl)pyridin-3-yl)imidazo[1,2-b]pyridazin-2-yl)phenyl)pivalamide]

- IC50 [1, 6]: 140 nM
- IC50 [2, 7]: 95 nM
SMILES: CC(C)(C)C(=O)Nc1cc(-c2cn3nc(-c4ccccc4Cl)ccc3n2)ccc1C(F)(F)F [Example 208, N-(5-(6-(2-chlorophenyl)imidazo[1,2-b]pyridazin-2-yl)-2-(trifluoromethyl)phenyl)pivalamide]

- IC50 [1, 6]: 99 nM
- IC50 [2, 7]: 100 nM
SMILES: Cc1ccc(-c2cn3nc(-c4ccc(C(N)=NO)cc4Cl)ccc3n2)cc1NC(=O)C(C)(C)C [compound 568]

- IC50 [1, 6]: 62 nM
- IC50 [2, 7]: 82 nM
SMILES: CC(C)(C)C(=O)Nc1cc(-c2cn3nc(-c4cc(F)ccc4F)ccc3n2)ccc1C(F)(F)F [Example 224, N-(5-(6-(2,5-difluorophenyl)imidazo[1,2-b]pyridazin-2-yl)-2-(trifluoromethyl)phenyl)pivalamide]

- IC50 [1, 6]: 85 nM
- IC50 [2, 7]: 27 nM
SMILES: CC(C)(C)C(=O)Nc1cc(-c2cn3nc(-c4cccnc4C(F)(F)F)ccc3n2)ccc1F [Example 658, N-(2-fluoro-5-(6-(2-(trifluoromethyl)pyridin-3-yl)imidazo[1,2-b]pyridazin-2-yl)phenyl)pivalamide]

- IC50 [1, 6]: 484 nM
- IC50 [2, 7]: 66 nM
SMILES: Cc1ccc(-c2cn3nc(NS(=O)(=O)c4cccc(C=CC(=O)NO)c4)ccc3n2)cc1NC(=O)C(C)(C)C [compound 606]

- IC50 [1, 6]: 236 nM
- IC50 [2, 7]: 475 nM
SMILES: Cc1ccc(-c2cn3nc(-c4ccc(F)nc4F)ccc3n2)cc1NC(=O)C(C)(C)C [Example 280, N-(5-(6-(2,6-difluoropyridin-3-yl)imidazo[1,2-b]pyridazin-2-yl)-2-methylphenyl)pivalamide]

- IC50 [1, 6]: 28 nM
- IC50 [2, 7]: 52 nM
SMILES: Cc1ccc(-c2cn3nc(-c4ccccc4F)ccc3n2)cc1NC(=O)C(C)(C)C [Example 220, N-(5-(6-(2-fluorophenyl)imidazo[1,2-b]pyridazin-2-yl)-2-methylphenyl)pivalamide]

- IC50 [1, 3]: 300 to 3000 nM
- IC50 [1, 6]: 1090 nM
- IC50 [2, 4]: 300 to 3000 nM
- IC50 [2, 7]: 398 nM
- IC50 [2, 5]: 300 to 3000 nM
SMILES: COc1ccc2nc(-c3ccc(C)c(NC(=O)c4ccccc4F)c3)cn2n1 [Example 96, 2-fluoro-N-(5-(6-methoxyimidazo[1,2-b]pyridazin-2-yl)-2-methylphenyl)benzamide]

- IC50 [1, 6]: 1100 nM
- IC50 [2, 7]: 227 nM
SMILES: Cc1ccc(-c2cn3nc(-c4ccc(Cl)cn4)ccc3n2)cc1NC(=O)C(C)(C)C [Example 366, N-(5-(6-(5-chloropyridin-2-yl)imidazo[1,2-b]pyridazin-2-yl)-2-methylphenyl)pivalamide]

- IC50 [1, 6]: 155 nM
- IC50 [2, 7]: 104 nM
SMILES: CC(=O)NC1CCN(c2ccc3nc(-c4ccc(C)c(NC(=O)C(C)(C)C)c4)cn3n2)C1 (stereo not shown) [Example 362, N-(5-(6-(3-acetamidopyrrolidin-1-yl)imidazo[1,2-b]pyridazin-2-yl)-2-methylphenyl)pivalamide]

- IC50 [1, 6]: 443 nM
- IC50 [2, 7]: 82 nM
SMILES: Cc1ccc(-c2cn3nc(-c4ccc(C#N)cc4F)ccc3n2)cc1NC(=O)C(C)(C)C [compound 545]

- IC50 [1, 6]: 365 nM
- IC50 [2, 7]: 1410 nM
SMILES: Cc1ccc2nc(-c3ccc(C(F)(F)F)c(NC(=O)C(C)(C)C)c3)cn2n1 [Example 142, N-(5-(6-methylimidazo[1,2-b]pyridazin-2-yl)-2-(trifluoromethyl)phenyl)pivalamide]

- IC50 [1, 6]: 963 nM
- IC50 [2, 7]: 1540 nM
SMILES: CN(C)c1ncc(-c2ccc3nc(-c4ccc(C(F)(F)F)c(NC(=O)C(C)(C)C)c4)cn3n2)cn1 [Example 378, N-(5-(6-(2-(dimethylamino)pyrimidin-5-yl)imidazo[1,2-b]pyridazin-2-yl)-2-(trifluoromethyl)phenyl)pivalamide]

- IC50 [1, 6]: 590 nM
- IC50 [2, 7]: 314 nM
SMILES: Cc1cccnc1-c1ccc2nc(-c3ccc(C(F)(F)F)c(NC(=O)C(C)(C)C)c3)cn2n1 [Example 152, N-(5-(6-(3-methylpyridin-2-yl)imidazo[1,2-b]pyridazin-2-yl)-2-(trifluoromethyl)phenyl)pivalamide]

- IC50 [1, 6]: 127 nM
- IC50 [2, 7]: 193 nM
SMILES: Cc1ccc(-c2cn3nc(N4CCC(O)CC4)ccc3n2)cc1NC(=O)C(C)(C)C [Example 286, N-(5-(6-(4-hydroxypiperidin-1-yl)imidazo[1,2-b]pyridazin-2-yl)-2-methylphenyl)pivalamide]

- IC50 [1, 6]: 91 nM
- IC50 [2, 7]: 142 nM
SMILES: Cc1ccc(-c2cn3nc(-c4cc(F)ccc4F)ccc3n2)cc1NC(=O)C(C)(C)C [Example 261, N-(5-(6-(2,5-difluorophenyl)imidazo[1,2-b]pyridazin-2-yl)-2-methylphenyl)pivalamide]
